Laboratory results: patent publication US11517018B2, “Herbicidal composition comprising cinmethylin and saflufenacil” (BASF Agro B.V., priority 2015, dated 2022)
Several values for one entry are separate records, joined by “and”; a condition that tells them apart may be missing. Equal entries are not always repeated.

Columns and labels:
Assay type in all cases: in vivo
Conditions in all cases: 20 DAT
Alopecurus myosuroides = assay: Greenhouse preemergence herbicidal activity, ALOMY
Protocol: (§1) The test plants have been seeded, separately for each species, in plastic containers in sandy loamy soil containing 5% of organic matter.
(§2) The containers were irrigated gently to promote germination and growth and subsequently covered with transparent plastic hoods until the plants had rooted.
(§3) The plants have been cultivated due to their individual requirements at 10-25° C. and 20-35° C. The plants were irrigated due to their necessity.
(§4) In the following experiments, the herbicidal activity for the individual herbicidal compositions (solo and mixture applications) was assessed 20 days after treatment (DAT).
(§5) The evaluation for the damage on undesired weeds caused by the chemical compositions was carried out using a scale from 0 to 100%, compared to the untreated control plants. Here, 0 means no damage and 100 means complete destruction of the plants.
(§6) E=X+Y−(X·Y/100) where • X=effect in percent using herbicide A at an application rate a; • Y=effect in percent using herbicide B at application rate b; • E=expected effect (in %) of herbicide A+herbicide B at application rates a+b.
(§7) The value E corresponds to the effect (plant damage or injury) which is to be expected if the activity of the individual compounds is additive. If the observed effect is higher than the value E calculated according to the Colby equation, a synergistic effect is present.

Digitaria sanguinalis = assay: Greenhouse postemergence herbicidal activity, DIGSA
Protocol: as §1
(§8) For the post emergence treatment, the plants were first grown to the 2 leaf station (GS 12). Here, the herbicidal compositions were suspended or emulsified in water as distribution medium and sprayed using finely distributing nozzels.
as §3, §4, §5, §6, §7

Geranium dissectum = assay: Greenhouse preemergence herbicidal activity, GERDI
Protocol: as §1, §2, §3, §4, §5, §6, §7

Lolium multiflorum [1] = assay: Greenhouse preemergence herbicidal activity, LOLMU
Protocol: as §1, §2, §3, §4, §5, §6, §7

Avena fatua [2] = assay: Greenhouse preemergence herbicidal activity, AVEFA
Protocol: as §1, §2, §3, §4, §5, §6, §7

Avena fatua [3] = assay: Greenhouse postemergence herbicidal activity, AVEFA
Protocol: as §1, §8, §3, §4, §5, §6, §7

Stellaria media [4] = assay: Greenhouse postemergence herbicidal activity, STEME
Protocol: as §1, §8, §3, §4, §5, §6, §7

Chenopodium album = assay: Greenhouse preemergence herbicidal activity, CHEAL
Protocol: as §1, §2, §3, §4, §5, §6, §7

Lolium multiflorum [5] = assay: Greenhouse postemergence herbicidal activity, LOLMU
Protocol: as §1, §8, §3, §4, §5, §6, §7

Polygonum convolvulus = assay: Greenhouse preemergence herbicidal activity, POLCO
Protocol: as §1, §2, §3, §4, §5, §6, §7

Papaver rhoeas = assay: Greenhouse preemergence herbicidal activity, PAPRH
Protocol: as §1, §2, §3, §4, §5, §6, §7

Sorghum halepense [6] = assay: Greenhouse postemergence herbicidal activity, SORHA
Protocol: as §1, §8, §3, §4
The evaluation for the damage on undesired weeds caused by the chemical compositions was carried out using a scale from 0 to 100%, compared to the untreated control plants. Here, 0 means no damage and 100 means complete destruction of the plants. […]
as §7

Galium aparine = assay: Greenhouse preemergence herbicidal activity, GALAP
Protocol: as §1, §2, §3, §4, §5, §6, §7

Stellaria media [7] = assay: Greenhouse preemergence herbicidal activity, STEME
Protocol: as §1, §2, §3, §4, §5, §6, §7

Setaria viridis = assay: Greenhouse preemergence herbicidal activity, SETVI
Protocol: as §1, §2, §3, §4, §5, §6, §7

Sorghum halepense [8] = assay: Greenhouse preemergence herbicidal activity, SORHA
Protocol: as §1, §2, §3, §4, §5, §6, §7

Abutilon theophrasti = assay: Greenhouse preemergence herbicidal activity, ABUTH
Protocol: as §1, §2, §3, §4, §5, §6, §7

[9] = saflufenacil solo 0.625 g ai/ha

## Cc1ccccc1CO[C@@H]1C[C@@]2(C(C)C)CC[C@@]1(C)O2 (racemic) [herbicide A, (±)-2-exo-(2-Methylbenzyloxy)-1-methyl-4-isopropyl-7-oxabicyclo[2.2.1]heptane]
Alopecurus myosuroides; herbicide A solo 31.25 g ai/ha
  herbicidal activity: 95%
Alopecurus myosuroides; herbicide A solo 62.5 g ai/ha
  herbicidal activity: 95% and 98%
Digitaria sanguinalis; herbicide A solo 87.5 g ai/ha
  herbicidal activity: 65%
Digitaria sanguinalis; herbicide A solo 125 g ai/ha
  herbicidal activity: 85%
Geranium dissectum; herbicide A solo 25 g ai/ha
  herbicidal activity: 50%
Geranium dissectum; herbicide A solo 125 g ai/ha
  herbicidal activity: 80%
Lolium multiflorum [1]; herbicide A solo 25 g ai/ha
  herbicidal activity: 50%
Lolium multiflorum [1]; herbicide A solo 62.5 g ai/ha
  herbicidal activity: 30%
Lolium multiflorum [1]; herbicide A solo 100 g ai/ha
  herbicidal activity: 95%
Lolium multiflorum [1]; herbicide A solo 125 g ai/ha
  herbicidal activity: 85%
Lolium multiflorum [1]; herbicide A solo 200 g ai/ha
  herbicidal activity: 98%
Lolium multiflorum [1]; herbicide A solo 250 g ai/ha
  herbicidal activity: 98%
Lolium multiflorum [1]; herbicide A solo 500 g ai/ha
  herbicidal activity: 95%
Avena fatua [2]; herbicide A solo 31.25 g ai/ha
  herbicidal activity: 30%
Avena fatua [2]; herbicide A solo 50 g ai/ha
  herbicidal activity: 0%
Avena fatua [2]; herbicide A solo 100 g ai/ha
  herbicidal activity: 20%
Avena fatua [2]; herbicide A solo 125 g ai/ha
  herbicidal activity: 35%
Avena fatua [2]; herbicide A solo 200 g ai/ha
  herbicidal activity: 50%
Avena fatua [2]; herbicide A solo 250 g ai/ha
  herbicidal activity: 60% and 70%
Avena fatua [2]; herbicide A solo 500 g ai/ha
  herbicidal activity: 80%
Avena fatua [3]; herbicide A solo 43.8 g ai/ha
  herbicidal activity: 25%
Avena fatua [3]; herbicide A solo 87.5 g ai/ha
  herbicidal activity: 30%
Avena fatua [3]; herbicide A solo 350 g ai/ha
  herbicidal activity: 70%
Stellaria media [4]; herbicide A solo 43.8 g ai/ha
  herbicidal activity: 0%
Stellaria media [4]; herbicide A solo 62.5 g ai/ha
  herbicidal activity: 25%
Chenopodium album; CHEAI, herbicide A solo 62.5 g ai/ha
  herbicidal activity: 40%
Chenopodium album; CHEAL, herbicide A solo 125 g ai/ha
  herbicidal activity: 95%
Chenopodium album; CHEAL, herbicide A solo 500 g ai/ha
  herbicidal activity: 85%
Lolium multiflorum [5]; herbicide A solo 43.8 g ai/ha
  herbicidal activity: 0%
Lolium multiflorum [5]; herbicide A solo 62.5 g ai/ha
  herbicidal activity: 0%
Lolium multiflorum [5]; herbicide A solo 87.5 g ai/ha
  herbicidal activity: 0%
Lolium multiflorum [5]; herbicide A solo 125 g ai/ha
  herbicidal activity: 0%
Lolium multiflorum [5]; herbicide A solo 350 g ai/ha
  herbicidal activity: 75%
Polygonum convolvulus; herbicide A solo 25 g ai/ha
  herbicidal activity: 0%
Polygonum convolvulus; herbicide A solo 50 g ai/ha
  herbicidal activity: 0%
Polygonum convolvulus; herbicide A solo 62.5 g ai/ha
  herbicidal activity: 0%
Papaver rhoeas; herbicide A solo 25 g ai/ha
  herbicidal activity: 0%
Papaver rhoeas; herbicide A solo 31.25 g ai/ha
  herbicidal activity: 65%
Papaver rhoeas; herbicide A solo 50 g ai/ha
  herbicidal activity: 0%
Sorghum halepense [6]; herbicide A solo 350 g ai/ha
  herbicidal activity: 70%
Galium aparine; herbicide A solo 25 g ai/ha
  herbicidal activity: 0%
Galium aparine; herbicide A solo 50 g ai/ha
  herbicidal activity: 0%
Galium aparine; herbicide A solo 125 g ai/ha
  herbicidal activity: 65%
Galium aparine; herbicide A solo 200 g ai/ha
  herbicidal activity: 30%
Stellaria media [7]; herbicide A solo 31.25 g ai/ha
  herbicidal activity: 40%
Stellaria media [7]; herbicide A solo 50 g ai/ha
  herbicidal activity: 20%
Setaria viridis; herbicide A solo 31.25 g ai/ha
  herbicidal activity: 95%
Setaria viridis; herbicide A solo 62.5 g ai/ha
  herbicidal activity: 90%
Setaria viridis; herbicide A solo 125 g ai/ha
  herbicidal activity: 95%
Setaria viridis; herbicide A solo 250 g ai/ha
  herbicidal activity: 98%
Sorghum halepense [8]; herbicide A solo 50 g ai/ha
  herbicidal activity: 95%
Sorghum halepense [8]; herbicide A solo 100 g ai/ha
  herbicidal activity: 98%
Sorghum halepense [8]; herbicide A solo 200 g ai/ha
  herbicidal activity: 98%
Abutilon theophrasti; herbicide A solo 31.25 g ai/ha
  herbicidal activity: 35%
Abutilon theophrasti; herbicide A solo 50 g ai/ha
  herbicidal activity: 0%
Abutilon theophrasti; herbicide A solo 62.5 g ai/ha
  herbicidal activity: 40%
Abutilon theophrasti; herbicide A solo 100 g ai/ha
  herbicidal activity: 0%

## CC(C)N(C)S(=O)(=O)NC(=O)c1cc(-n2c(=O)cc(C(F)(F)F)n(C)c2=O)c(F)cc1Cl [saflufenacil, N′-{2-chloro-4-fluoro-5-[1,2,3,6-tetrahydro-3-methyl-2,6-dioxo-4-(trifluoromethyl)pyrimidin-1-yl]benzoyl}-N-isopropyl-N-methylsulfamide]
Alopecurus myosuroides; saflufenacil solo 4.4 g ai/ha
  herbicidal activity: 0%
Alopecurus myosuroides; saflufenacil solo 8.8 g ai/ha
  herbicidal activity: 0%
Alopecurus myosuroides; saflufenacil solo 25 g ai/ha
  herbicidal activity: 0%
Digitaria sanguinalis; saflufenacil solo 1.25 g ai/ha
  herbicidal activity: 75%
Geranium dissectum; saflufenacil solo 3.13 g ai/ha
  herbicidal activity: 20%
Geranium dissectum; saflufenacil solo 17.5 g ai/ha
  herbicidal activity: 80%
Lolium multiflorum [1]; saflufenacil solo 3.13 g ai/ha
  herbicidal activity: 0%
Lolium multiflorum [1]; saflufenacil solo 12.5 g ai/ha
  herbicidal activity: 0%
Avena fatua [2]; saflufenacil solo 4.4 g ai/ha
  herbicidal activity: 0%
Avena fatua [2]; saflufenacil solo 6.25 g ai/ha
  herbicidal activity: 0%
Avena fatua [2]; saflufenacil solo 8.8 g ai/ha
  herbicidal activity: 0%
Avena fatua [2]; saflufenacil solo 12.5 g ai/ha
  herbicidal activity: 0%
Avena fatua [2]; saflufenacil solo 35 g ai/ha
  herbicidal activity: 20%
Avena fatua [2]; saflufenacil solo 50 g ai/ha
  herbicidal activity: 0%
Avena fatua [3]; [9]
  herbicidal activity: 0%
Avena fatua [3]; saflufenacil solo 1.25 g ai/ha
  herbicidal activity: 0%
Avena fatua [3]; saflufenacil solo 5 g ai/ha
  herbicidal activity: 0%
Stellaria media [4]; [9]
  herbicidal activity: 85%
Chenopodium album; CHEAI, saflufenacil solo 25 g ai/ha
  herbicidal activity: 90%
Chenopodium album; CHEAL, saflufenacil solo 25 g ai/ha
  herbicidal activity: 90%
Lolium multiflorum [5]; [9]
  herbicidal activity: 0%
Lolium multiflorum [5]; saflufenacil solo 1.25 g ai/ha
  herbicidal activity: 0%
Lolium multiflorum [5]; saflufenacil solo 5 g ai/ha
  herbicidal activity: 50%
Polygonum convolvulus; saflufenacil solo 3.13 g ai/ha
  herbicidal activity: 20%
Polygonum convolvulus; saflufenacil solo 6.25 g ai/ha
  herbicidal activity: 98%
Polygonum convolvulus; saflufenacil solo 8.8 g ai/ha
  herbicidal activity: 90%
Papaver rhoeas; saflufenacil solo 3.13 g ai/ha
  herbicidal activity: 95%
Papaver rhoeas; saflufenacil solo 4.4 g ai/ha
  herbicidal activity: 85%
Papaver rhoeas; saflufenacil solo 6.25 g ai/ha
  herbicidal activity: 90%
Sorghum halepense [6]; saflufenacil solo 5 g ai/ha
  herbicidal activity: 65%
Galium aparine; saflufenacil solo 3.13 g ai/ha
  herbicidal activity: 0%
Galium aparine; saflufenacil solo 6.25 g ai/ha
  herbicidal activity: 20%
Galium aparine; saflufenacil solo 17.5 g ai/ha
  herbicidal activity: 95%
Galium aparine; saflufenacil solo 25 g ai/ha
  herbicidal activity: 98%
Stellaria media [7]; saflufenacil solo 4.4 g ai/ha
  herbicidal activity: 90%
Stellaria media [7]; saflufenacil solo 6.25 g ai/ha
  herbicidal activity: 95%
Setaria viridis; saflufenacil solo 4.4 g ai/ha
  herbicidal activity: 0%
Setaria viridis; saflufenacil solo 25 g ai/ha
  herbicidal activity: 60%
Setaria viridis; saflufenacil solo 50 g ai/ha
  herbicidal activity: 65%
Sorghum halepense [8]; saflufenacil solo 6.25 g ai/ha
  herbicidal activity: 0%
Sorghum halepense [8]; saflufenacil solo 12.5 g ai/ha
  herbicidal activity: 10%
Sorghum halepense [8]; saflufenacil solo 25 g ai/ha
  herbicidal activity: 30%
Abutilon theophrasti; saflufenacil solo 4.4 g ai/ha
  herbicidal activity: 65%
Abutilon theophrasti; saflufenacil solo 6.25 g ai/ha
  herbicidal activity: 98%
Abutilon theophrasti; saflufenacil solo 8.8 g ai/ha
  herbicidal activity: 85%
Abutilon theophrasti; saflufenacil solo 12.5 g ai/ha
  herbicidal activity: 98%
